Test results as given in patent US20210274789A1, “Antimicrobial Surface Treatment” (Kode Biotech Limited, priority 2018, published 2021).

Assays:
Format in all cases: cell-based
Escherichia coli [1] = assay: Growth on bandage substrate treated with crystal violet alone or with a construct, resazurin colour change; design: key: No growth: dark blue (no growth); Reduced growth: purple (reduced growth); Growth: light red (growth); conditions: crystal violet alone
Experimental: (§1) Swatches (1 cm diameter circular disks) were cut from the fabric portion of commercially available adhesive bandages (BAND-AID™ Quilt-Aid Technology, Johnson & Johnson). Volumes of 50 μL were dispended onto the surface of the swatches and the swatches allowed to air dry undisturbed at 80° C. The volumes consisted of dispersions or solutions in deionized water of 0.04% (w/v) crystal violet, 0.25 mM or 0.13 mM of the construct designated FSL-Se or the construct designated FSL-0, or water alone. A further volume of 100 μL of 0.04% (w/v) crystal violet in deionized water was dispensed onto the surface of the dried treated swatches and incubated undisturbed at room temperature for 10 minutes before rinsing as before with sterile deionized water.
(§2) Frozen stock cultures of bacterial isolates (Staphylococcus aureus, Staphylococcus epidermis, Escherichia coli or Pseudomonas aeruginosa) were streaked on Columbia sheep blood agar plates (Fort Richard Laboratories) and the plates incubated at 37° C. for 24 hours when separate colonies had developed. Two to three colonies were then transferred to a volume of 10 mL of 21 g/L Muller-Hinton (MH) broth, vortexed and the turbidity measured at 600 nm. The MH broth was diluted with a further volume so that the turbidity provided an optical density of 0.20 for the suspensions of Staphylococcus aureus and Staphylococcus epidermis and 0.08 for the suspensions of Escherichia coli and Pseudomonas aeruginosa. The diluted suspensions (around 10^8 cfu/mL) were serially diluted.
(§3) Individual treated swatches from each treatment group were placed at the base of separate wells in a 96-well cell culture plate. Volumes of 10 μL of serial dilutions of the suspensions of bacteria were dispensed onto the surface of the swatches (excluding the negative control). The inoculated swatches were then incubated undisturbed at room temperature for 10 minutes before dispensing into each well a volume of 50 μL of sterile deionized water and 150 μL of MH broth containing 0.02% resazurin sodium salt (Sigma-Aldrich).
(§4) The colour change (if any) observed in each well was observed after incubation of the plate for 24 hours at 37° C. Observations are recorded in Tables 1, 2, 3 and 4.

Pseudomonas aeruginosa [2] = assay: as above; design: key: No growth: dark blue (no growth); Reduced growth: purple (reduced growth); Growth: light red (growth); conditions: crystal violet alone
Experimental: as §1, §2, §3, §4

Staphylococcus aureus [3] = assay: as above; design: key: No growth: dark blue (no growth); Reduced growth: purple (reduced growth); Growth: light red (growth)
Experimental: as §1, §2, §3, §4

Escherichia coli [4] = assay: AgNP augmented antibacterial surface treatment of adhesive bandage swatches, resazurin; design: key: Growth: growth (growth); Inhibition: inhibition of growth (inhibition); No growth: prevention of growth (no growth); conditions: 37° C. for 24 hours, duplicate swatches
Experimental: (§5) Preparation of negatively charged silver nanoparticles Negatively charged nanoparticles of silver (AgNPs) were prepared according to the following method. Quantities of 2 g glucose and 1 g polyvinylpyrrolidone (PVP) were dissolved in water and the resultant volume heated to 90° C. A quantity of 0.5 g of silver nitrate (AgNO3) was dissolved in a separate volume of 1 mL water and the two volumes then rapidly mixed. The mixed volume was maintained at a temperature of 90° C. for a period of time of one hour before cooling to room temperature. The AgNPs were collected by repeated (3 times) centrifugation at 14,000 rpm for a period of time of 60 minutes and resuspension in deionised filtered water (Milli-Q) to remove excess oxidation products, PVP and silver ion (Ag^+). The washed suspension of AgNPs was stored in the dark at 4° C. The AgNPs were characterised by […] dispersive spectroscopy (EDS) and UV-Vis absorbance scanning.
(§6) Swatches (5×5 mm squares) were cut from the fabric portion of commercially available adhesive bandages (BAND-AID™, Quilt-Aid Technology, Johnson & Johnson). A volume of 50 μL of a 0.13 mM dispersion of one of the following constructs was pipetted onto the surface of a swatch: FSL-biotin, FSL-0, FSL-HA17 kDa, FSL-Se and FSL-spm.
(§7) The swatches were air-dried at a temperature of 80° C. prior to washing (3 times) with sterile, filtered, deionised water (Milli-Q).
(§8) Controls were prepared without contacting the swatches with constructs or without washing following contacting the swatches with construct. Individual treated squares (including controls) were placed in the bottom of individual wells of a 96-well plate and inoculated with a volume of 10 μL of a serial dilution of a log phase culture in Mueller Hinton (MH) broth of one of the following bacteria: • Staphylococcus aureus • Staphylococcus epidermis • Escherichia coli • Pseudomonas aeruginosa
(§9) The inoculated swatches were then incubated for 10 minutes before dispensing into each well of the plate a volume of 50 μL of sterile, filtered, deionised water (Milli-Q) and 150 μL of MH broth containing 0.00266% (w/v) resazurin and incubating for a period of time of 24 hours at a temperature of 37° C. The observations of resulting growth (as indicated by a colour change from blue to red) from the estimated bacterial load (2.5×10^4 or 2.5×10^6 colony forming units (cfu)) for each treatment and species of bacterium are recorded in Tables 5 to 8.

Pseudomonas aeruginosa [5] = assay: as above; design: key: Growth: growth (growth); Inhibition: inhibition of growth (inhibition); No growth: prevention of growth (no growth); conditions: 37° C. for 24 hours, duplicate swatches
Experimental: as §5, §6, §7, §8, §9

Staphylococcus aureus [6] = assay: as above; design: key: Growth: growth (growth); Inhibition: inhibition of growth (inhibition); No growth: prevention of growth (no growth); conditions: 37° C. for 24 hours, duplicate swatches
Experimental: as §5, §6, §7, §8, §9

Staphylococcus epidermis [7] = assay: as above; design: key: Growth: growth (growth); Inhibition: inhibition of growth (inhibition); No growth: prevention of growth (no growth); conditions: 37° C. for 24 hours, duplicate swatches
Experimental: as §5, §6, §7, §8, §9

Staphylococcus epidermis [8] = assay: Growth on bandage substrate treated with crystal violet alone or with a construct, resazurin colour change; design: key: No growth: dark blue (no growth); Reduced growth: purple (reduced growth); Growth: light red (growth); conditions: 0.25 mM construct in combination with crystal violet
Experimental: as §1, §2, §3, §4

[9] = challenge 1.5 × 10^4 to 10^5 cfu
[10] = unwashed following application of the FSL construct, load 1.99 × 10^4 cfu
[11] = unwashed following application of the FSL construct, load 1.99 × 10^6 cfu
[12] = washed following application of the FSL construct, load 1.99 × 10^4 cfu
[13] = washed following application of the FSL construct, load 1.99 × 10^6 cfu
[14] = unwashed following application of the FSL construct, load 1.75 x 10^4 cfu
[15] = unwashed following application of the FSL construct, load 1.75 × 10^6 cfu
[16] = washed following application of the FSL construct, load 1.75 x 10^4 cfu
[17] = washed following application of the FSL construct, load 1.75 x 10^6 cfu
[18] = unwashed following application of the FSL construct, load 2.53 × 10^4 cfu
[19] = unwashed following application of the FSL construct, load 2.53 × 10^6 cfu
[20] = washed following application of the FSL construct, load 2.53 × 10^4 cfu
[21] = washed following application of the FSL construct, load 2.53 × 10^6 cfu
[22] = unwashed following application of the FSL construct, load 2.11 × 10^4 cfu
[23] = unwashed following application of the FSL construct, load 2.11 × 10^6 cfu
[24] = washed following application of the FSL construct, load 2.11 × 10^4 cfu
[25] = washed following application of the FSL construct, load 2.11 × 10^6 cfu

| Compound | Observations of growth, inhibition of growth or prevention of growth (Escherichia coli [4]; [10]) | Observations of growth, inhibition of growth or prevention of growth (Escherichia coli [4]; [11]) | Observations of growth, inhibition of growth or prevention of growth (Escherichia coli [4]; [12]) | Observations of growth, inhibition of growth or prevention of growth (Escherichia coli [4]; [13]) | Observations of growth, inhibition of growth or prevention of growth (Pseudomonas aeruginosa [5]; [14]) | Observations of growth, inhibition of growth or prevention of growth (Pseudomonas aeruginosa [5]; [15]) | Observations of growth, inhibition of growth or prevention of growth (Pseudomonas aeruginosa [5]; [16]) | Observations of growth, inhibition of growth or prevention of growth (Pseudomonas aeruginosa [5]; [17]) | Observations of growth, inhibition of growth or prevention of growth (Staphylococcus aureus [6]; [18]) | Observations of growth, inhibition of growth or prevention of growth (Staphylococcus aureus [6]; [19]) | Observations of growth, inhibition of growth or prevention of growth (Staphylococcus aureus [6]; [20]) | Observations of growth, inhibition of growth or prevention of growth (Staphylococcus aureus [6]; [21]) | Observations of growth, inhibition of growth or prevention of growth (Staphylococcus epidermis [7]; [22]) | Observations of growth, inhibition of growth or prevention of growth (Staphylococcus epidermis [7]; [23]) | Observations of growth, inhibition of growth or prevention of growth (Staphylococcus epidermis [7]; [24]) | Observations of growth, inhibition of growth or prevention of growth (Staphylococcus epidermis [7]; [25]) | further results |
| --- | --- | --- | --- | --- | --- | --- | --- | --- | --- | --- | --- | --- | --- | --- | --- | --- | --- |
| CN(C)c1ccc(C(=C2C=CC(=[N+](C)C)C=C2)c2ccc(N(C)C)cc2)cc1.[Cl-] [Crystal violet, N-[4-[bis[4-(dimethylamino)phenyl]methylene]-2,5-cyclohexadien-1-ylidene]-N-methyl-methanaminium chloride] | Growth | Growth | Growth | Growth | Growth | Growth | Growth | Growth | Growth | Growth | Growth | Growth | Inhibition | Growth | Inhibition | Growth | Growth monitored by colour change of resazurin containing MH broth (Escherichia coli [1]; [9]): Growth; Growth monitored by colour change of resazurin containing MH broth (Escherichia coli [1]; challenge 5 × 10^3 to 10^4 cfu): Growth; Growth monitored by colour change of resazurin containing MH broth (Escherichia coli [1]; challenge 500 to 1,000 cfu): Growth; Growth monitored by colour change of resazurin containing MH broth (Escherichia coli [1]; challenge >10^5 cfu): Growth; Growth monitored by colour change of resazurin containing MH broth (Pseudomonas aeruginosa [2]; [9]): Growth; Growth monitored by colour change of resazurin containing MH broth (Pseudomonas aeruginosa [2]; challenge 5 × 10^3 to 10^4 cfu): Growth; Growth monitored by colour change of resazurin containing MH broth (Pseudomonas aeruginosa [2]; challenge 10^3 to 5 × 10^3 cfu): Growth; Growth monitored by colour change of resazurin containing MH broth (Pseudomonas aeruginosa [2]; challenge <500 cfu): Growth; Growth monitored by colour change of resazurin containing MH broth (Pseudomonas aeruginosa [2]; challenge >10^5 cfu): Growth; Growth monitored by colour change of resazurin containing MH broth (Staphylococcus aureus [3]; crystal violet alone, challenge 500 to 1,000 cfu): No growth |
| NCSeCH2CO-CMG(2)-Ad-DOPE [FSL-Se] | Growth | Growth | Growth | Growth | Growth | Growth | Growth | Growth | Growth | Growth | Growth | Growth | Growth | Growth | Growth | Growth | Growth monitored by colour change of resazurin containing MH broth (Staphylococcus aureus [3]; 0.25 mM construct in combination with crystal violet, challenge 1.5 × 10^4 to 10^5 cfu): No growth; Growth monitored by colour change of resazurin containing MH broth (Staphylococcus aureus [3]; 0.25 mM construct in combination with crystal violet, challenge 10^3 to 5 × 10^3 cfu): No growth; Growth monitored by colour change of resazurin containing MH broth (Staphylococcus aureus [3]; 0.25 mM construct in combination with crystal violet, challenge >10^5 cfu): No growth; Growth monitored by colour change of resazurin containing MH broth (Staphylococcus epidermis [8]; challenge 10^3 to 5 × 10^3 cfu): No growth; Growth monitored by colour change of resazurin containing MH broth (Staphylococcus epidermis [8]; challenge 10^4 to 1.5 × 10^4 cfu): No growth; Growth monitored by colour change of resazurin containing MH broth (Staphylococcus epidermis [8]; challenge >10^5 cfu): No growth |
